Laboratory results from patent US12227480B1 (priority 2023, dated 2025).

How the values were obtained:
[1] = test system: Mycobacterium tuberculosis MDR strain; experiment: microbe, parasite or virus in culture; type: cell-based; conditions: read-out: Anti-tubercular activity against Mycobacterium tuberculosis (MIC), MDR
[2] = test system: Mycobacterium tuberculosis XDR strain; experiment: microbe, parasite or virus in culture; type: cell-based; conditions: read-out: Anti-tubercular activity against Mycobacterium tuberculosis (MIC), XDR

In the case of `Cc1cc[n+](CC(=O)c2ccc(F)cc2)cc1.[Br-]` [Compound 3d, 1-(2-(4-Fluorophenyl)-2-oxoethyl)-4-methylpyridin-1-ium bromide], the MIC [1] is reported as 8 µg/mL and the MIC [2] is reported as 32 µg/mL.
